Measured values as given in patent US8987285B2, “Pharmaceutical compositions, dosage forms and new forms of the compound of formula (I), and methods of use thereof” (Portola Pharmaceuticals, Inc., priority 2010, dated 2015).

Experiments:
[1] = Supersaturation stabilization experiment with PVP K90 (CheqSol); type: physicochemical
Source text: Typically the higher the super saturation, the faster and the more extensive is the precipitation which occurs. On the other hand, higher bioavailability may be achieved by using excipients which interact with the drug in the super-saturated state. In this super-saturated state, precipitation is inhibited and/or delayed, thus leading to higher luminal drug concentrations in vivo of the dissolved drug. […] The present invention thus provides a pharmaceutical composition which achieves higher bioavailability of the drug substance.

[2] = Pharmacokinetic Study 1: FMI tablets fasted/fed versus reference IR capsule, crossover, healthy adult volunteers; type: in vivo, human; settings: for Geometric-mean ratio (Fed/Fasted) of AUCinf / Geometric-mean ratio (Fed/Fasted) of AUClast / Geometric-mean ratio (Fed/Fasted) of Cmax: high fat breakfast versus fasted
Method: This was an open label, randomized, four-period, incomplete crossover, single center study in healthy adult volunteers. There were 4 treatments in the study: 3 doses of the FMI (given fasting or fed following a high-fat breakfast) and one reference IR capsule (given fed after a typical breakfast). The term “FMI” refers to the dosage form of Example 7 (30 mg FMI) or Example 8 (75 mg FMI).
Each subject was randomized to 1 of 18 treatment sequences, each with 4 treatment periods (Table 27). The first treatment period consisted of 1 of the 3 doses of FMI given fed, and treatment periods 2 to 4 consisted of 1 dose of IR capsule (fed) and 2 of the 3 doses of the FMI given fasted. […] Each subject therefore had 2 fasting treatments with the FMI formulation, 1 fed treatment with the FMI formulation and a reference treatment (IR capsule). Seventy two subjects enrolled and were dosed in the study with 70 completers.
The study consisted of a 28-day screening period, four baseline periods (one before each treatment period), four treatment periods with a wash out period of a minimum of 5 days, followed by a study completion evaluation approximately 72 hours after the last drug administration. Subjects who met the eligibility criteria at screening were admitted to baseline evaluations. All baseline safety evaluation results were available prior to dosing.
For fasted administration, elinogrel was administered in the morning, following an overnight fast of at least 10 hours. Subjects continued to fast until 4 hours post-dose. For fed administration of FMI tablets, elinogrel was administered in the morning, within 30 minutes of a high fat breakfast (approximately 1000 calories). Subjects continued to fast until 4 hours post-dose. For fed administration of the reference (IR capsule), it was administered in the morning, within 30 minutes of a typical breakfast (approximately 500 calories). Subjects continued to fast until 4 hours post-dose.
Subjects were admitted to the study site approximately 12 hours prior to dosing in each period for baseline evaluations. Following a single dose of elinogrel, PK assessments were taken up to 48 hours post dose and safety assessments were made for up to 72 hours.
Subjects were domiciled for 24 hours post dosing for PK sample collection, at which time they were discharged from the study site. Subjects returned on the following 2 mornings for 48 hour PK and 72 hour safety samples. Following the 72 hour safety assessments of treatment period 4 (or in the case of subject discontinuation) subjects underwent study completion evaluations and were discharged from the study. […].
This was a three-period, four-treatment crossover study design with an add-on food effect period (Period 1).
Treatment 1 (T1)=elinogrel 30 mg FMI dose fasting
Treatment 2 (T2)=elinogrel 75 mg FMI dose fasting
Treatment 3 (T3)=elinogrel 150 mg FMI dose fasting
Reference (R)=elinogrel 150 mg IR capsule dose fed (typical breakfast); Example 6 (Reference)
Fed treatment 1 (F1)=elinogrel 30 mg FMI dose fed (high fat breakfast)
Fed treatment 2 (F2)=elinogrel 75 mg FMI dose fed (high fat breakfast)
Fed treatment 3 (F3)=elinogrel 150 mg FMI dose fed (high fat breakfast)
Subjects will received the following treatments in a randomized order: • Treatment (T1, F1) with IR (IR=immediate release) tablet of Example 7 containing pH-modifying alkalizing agent, 30 mg in fasted and fed state. • Treatment (T2, F2) with IR (IR=immediate release) tablet of Example 8 containing pH-modifying alkalizing agent, 75 mg in fasted and fed state • Treatment (R) with 2×IR (IR=immediate release) capsule of Example 6 (Reference): 2×75 mg (150 mg) in fed state. • Treatment (T3, F3) with 2×IR (IR=immediate release) tablet of Example 8 containing pH-modifying alkalizing agent, 2×75 mg (150 mg) in fasted and fed state.
To evaluate the food effect, the geometric mean ratio for PK parameters of the fed versus fasted for each dose level and its 90% CI was estimated as shown in Table 29 below.

**Q.** For `CNc1cc2[nH]c(=O)n(-c3ccc(NC(=O)NS(=O)(=O)c4ccc(Cl)s4)cc3)c(=O)c2cc1F` [compound of formula (II), elinogrel], which stable super-saturation ([1]; PVP K90 to drug 1:1 by weight, pH>6.0, for 66 hours) is on record?
**A.** 17-86 fold

**Q.** What about the “concentration in solution with PVP” value ([1]; after 67 h with PVP, pH 7.2) of the same compound?
**A.** 860 µg/mL

**Q.** What about the solubility ([1]; aqueous buffer, pH 6.0, read-out: solubility measured by Sirius CheqSol) of the same compound?
**A.** 9.9 µg/mL

**Q.** And the solubility at 66 h ([1]; pH 7.2, aqueous buffer)?
**A.** ~170 µg/mL

**Q.** And the “decrease of AUC by high fat meal” value ([2]; 30 mg dose)?
**A.** 44-52%

**Q.** What about the “decrease of Cmax by high fat meal” value ([2]; 30 mg dose) of the same compound?
**A.** 58%

**Q.** And the “decrease of AUC by high fat meal” value ([2]; 75 mg dose)?
**A.** 14-18%

**Q.** And the “decrease of Cmax by high fat meal” value ([2]; 75 mg dose)?
**A.** 36%

**Q.** What about the “decrease of AUC by high fat meal” value ([2]; 150 mg dose) of the same compound?
**A.** 29-30%

**Q.** And the “decrease of Cmax by high fat meal” value ([2]; 150 mg dose)?
**A.** 48%

**Q.** What about the “Geometric-mean ratio (Fed/Fasted) of AUCinf” value ([2]; FMI 30 mg) of the same compound?
**A.** 0.48

**Q.** What about the “Geometric-mean ratio (Fed/Fasted) of AUClast” value ([2]; FMI 30 mg) of the same compound?
**A.** 0.56

**Q.** And the “Geometric-mean ratio (Fed/Fasted) of Cmax” value ([2]; FMI 30 mg)?
**A.** 0.42

**Q.** What about the “Geometric-mean ratio (Fed/Fasted) of AUCinf” value ([2]; FMI 75 mg) of the same compound?
**A.** 0.86

**Q.** What about the “Geometric-mean ratio (Fed/Fasted) of AUClast” value ([2]; FMI 75 mg) of the same compound?
**A.** 0.82

**Q.** What about the “Geometric-mean ratio (Fed/Fasted) of Cmax” value ([2]; FMI 75 mg) of the same compound?
**A.** 0.64

**Q.** What about the “Geometric-mean ratio (Fed/Fasted) of AUCinf” value ([2]; FMI 150 mg) of the same compound?
**A.** 0.71

**Q.** What about the “Geometric-mean ratio (Fed/Fasted) of AUClast” value ([2]; FMI 150 mg) of the same compound?
**A.** 0.70

**Q.** And the “Geometric-mean ratio (Fed/Fasted) of Cmax” value ([2]; FMI 150 mg)?
**A.** 0.52
